These results are taken from patent US20210388029A1, “CYTOPLASMIC TRANSDUCTION PEPTIDE AND INTRACELLULAR MESSENGER COMPRISING SAME” (priority 2016, published 2021).

For this assay, the system named is HeLa cells. Description: Cell membrane penetration activity in HeLa cells, immunostaining / confocal laser scanning microscope. Conditions: 3 hours; for fluorescence signal versus concentration (zinc finger domain peptides): FITC-conjugated. It is filed as cell-based. On the procedure:
HeLa cells were seeded into a 12-well plate having glass at a density of 1×10^5 cells/well, and then cultured for 24 hours to attach the cells to the glass. Then, cells were treated with FITC-NC peptides at […] concentration for 3 hours. After 3 hours, the cells were washed three times with PBS, the cells were fixed with 3.7% formaldehyde for 20 minutes, and the cells were treated with PBS containing 0.2% Triton X-100 to increase the cell membrane penetration activity. Then, the cells were blocked with 3% BSA for 1 hour, reacted with lamin A/C antibody (Sigma-Aldrich, USA) at room temperature for 2 hours, and washed three times with PBS. Next, the cells were treated with Cy3-conjugated secondary antibody (Jackson ImmunoResearch, USA) at room temperature for 1 hour, washed twice with PBS, and then stained with DAPI (4′,6-diamidino-2-phenylindol) for 10 minutes. The HeLa cell-attached glass was removed and placed on a slide glass.
The HeLa cells were seeded into a 12-well plate containing glass at a density of 1×10^5 cells/well, and then cultured for 24 hours to attach the cells to the glass. Thereafter, the FITC-NC peptide, the trans-activating transcriptional activator peptide (FITC-Tat peptide), the FITC-MA11 peptide, the protein transduction domain-ys peptide (FITC-PTD-ys peptide), the translocation motif peptide (FITC-TLM peptide) and FITC-TD1 peptide were treated with the HeLa cells for 3 hours. After 3 hours, the cells were washed 3 times with PBS and the cells were fixed with 3.7% formaldehyde for 20 minutes. The cells were treated with PBS containing 0.2% Triton X-100 to increase cell membrane penetration activity and blocked with 3% BSA for 1 hour. Then, the cells were reacted with tubulin antibody (Santa Cruz Biotechnology, USA) at room temperature for 2 hours and washed three times with PBS. The cells were treated with Cy3 secondary antibody. They were reacted at room temperature for 1 hour, washed twice with PBS, and stained with DAPI for 10 minutes. The HeLa cell-attached glass was removed and placed on a slide glass.
Further, in order to identify a change in cell membrane penetration activity by FITC-NC peptide, the HeLa cells were treated with hexapeptide, FITC-hexapeptide, FITC-NC-hexapeptide, FITC-13NC35 peptide and FITC-29NC50 peptide for 3 hours in the same manner as above and observed with a confocal laser scanning microscope. Meanwhile, the amino acid sequences of the hexapeptide, PTD-ys peptide, TLM peptide, TD1 peptide, NC-hexapeptide, 13NC35 peptide and 29NC50 peptide used are shown in Table 5 below.

No end group written: not given here.

Regarding “29NC50 peptide: 29th to 50th amino acid of HIV-NC with second zinc finger domain, SEQ ID NO: 11 RAPRKKGCWKCGKEGHQMKDCT (cysteine pairing not given here; also: FITC label, place not given here)”, the “fluorescence signal versus concentration (zinc finger domain peptides)” value is “fluorescence signals were increased in proportion to the concentration”.
In the case of “hexapeptide: polypeptide cargo, SEQ ID NO: 5 EEMQRR (also: FITC label, place not given here)”, for the setting “FITC-labelled”, the “cell membrane penetration of polypeptide cargo (confocal)” value was “did not penetrate the cell membrane”.
Consider “FITC-TLM peptide: translocation motif peptide, SEQ ID NO: 7 PLSSIFSRIGDP, FITC-conjugated [reference compound]”, for which, under “20 μM”, the “cell membrane penetration (confocal)” value was “hardly penetrable to the cell membrane”.
For “13NC35 peptide: 13th to 35th amino acid of HIV-NC with first zinc finger domain, SEQ ID NO: 10 VKCFNCGKEGHTARNCRAPRKKG (cysteine pairing not given here; also: FITC label, place not given here)”, the “fluorescence signal versus concentration (zinc finger domain peptides)” value is listed as “fluorescence signals were increased in proportion to the concentration”.
